# Calls of active or inactive are those of the source.
# Key:
# [1] = target: Cytochrome P450 2C19 (Homo sapiens, UniProt P33261); assay: Cytochrome panel assay with activity outcomes. Panel member name: p450-cyp2c19 Compounds with AC50 equal or less than 10 uM are considered active; format: functional; details: read-out: AC50
# [2] = target: Cytochrome P450 2D6 (Homo sapiens, UniProt P10635);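 further: CYP2D6 member of a cytochrome P450 panel assay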
# [3] = target: T1, Cytochrome P450 1A2 (Homo sapiens, UniProt P05177)
# T1 sequence (P05177 whole entry): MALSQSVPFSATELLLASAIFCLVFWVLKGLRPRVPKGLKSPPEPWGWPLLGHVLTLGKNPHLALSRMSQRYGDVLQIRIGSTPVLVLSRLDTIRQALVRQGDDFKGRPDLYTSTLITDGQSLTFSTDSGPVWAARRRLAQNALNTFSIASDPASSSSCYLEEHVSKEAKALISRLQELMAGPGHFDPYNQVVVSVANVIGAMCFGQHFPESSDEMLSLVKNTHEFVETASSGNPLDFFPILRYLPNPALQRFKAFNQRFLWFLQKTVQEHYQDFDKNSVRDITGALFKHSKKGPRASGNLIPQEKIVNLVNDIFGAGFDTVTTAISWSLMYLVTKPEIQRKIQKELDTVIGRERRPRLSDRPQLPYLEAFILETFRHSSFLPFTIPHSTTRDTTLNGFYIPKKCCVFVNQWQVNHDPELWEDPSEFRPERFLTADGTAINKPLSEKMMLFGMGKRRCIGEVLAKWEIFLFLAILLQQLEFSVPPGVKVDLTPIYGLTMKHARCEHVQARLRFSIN
# [4] = target: FAD-linked sulfhydryl oxidase ALR (Homo sapiens, UniProt P55789); assay: ALR-catalysed DTT oxidation blockers – biochemical, H2O2 detection, luminescence, cherry-pick, dose response (AID 493248)
# Chain of FAD-linked sulfhydryl oxidase ALR (P55789 whole entry): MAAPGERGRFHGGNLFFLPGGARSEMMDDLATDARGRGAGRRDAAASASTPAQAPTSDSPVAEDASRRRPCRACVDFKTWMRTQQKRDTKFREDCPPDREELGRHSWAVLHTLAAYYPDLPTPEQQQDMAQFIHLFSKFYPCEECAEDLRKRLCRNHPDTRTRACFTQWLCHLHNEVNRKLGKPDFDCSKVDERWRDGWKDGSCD
# [5] = viability of uninfected HEp-2 cells – cell-based, HTS, cytotoxicity control for RSV inhibitor project, dose response (AID 2410); format: functional; details: human respiratory syncytial virus
# [6] = Luminescence Cell-Based Dose Retest to Confirm Inhibitors of Cancer Stem Cells. [Related pubchem assays (depositor defined):AID2717, AID2721]; format: functional; details: Homo sapiens
# [7] = target: Cytochrome P450 2C9 (Homo sapiens, UniProt P11712)
# Chain of Cytochrome P450 2C9 (P11712 whole entry): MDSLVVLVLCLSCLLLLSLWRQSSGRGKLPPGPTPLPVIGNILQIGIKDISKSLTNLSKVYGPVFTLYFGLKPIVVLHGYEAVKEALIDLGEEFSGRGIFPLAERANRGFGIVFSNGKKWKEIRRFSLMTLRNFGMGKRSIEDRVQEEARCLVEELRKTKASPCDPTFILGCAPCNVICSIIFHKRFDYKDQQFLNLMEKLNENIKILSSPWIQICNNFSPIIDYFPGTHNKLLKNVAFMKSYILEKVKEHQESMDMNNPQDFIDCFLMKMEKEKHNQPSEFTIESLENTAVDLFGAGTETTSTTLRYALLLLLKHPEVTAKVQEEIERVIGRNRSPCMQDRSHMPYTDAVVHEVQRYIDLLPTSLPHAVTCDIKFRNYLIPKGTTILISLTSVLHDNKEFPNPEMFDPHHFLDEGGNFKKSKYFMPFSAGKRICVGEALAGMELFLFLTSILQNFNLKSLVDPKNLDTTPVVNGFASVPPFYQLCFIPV
# Chain of Cytochrome P450 2C19 (P33261 whole entry): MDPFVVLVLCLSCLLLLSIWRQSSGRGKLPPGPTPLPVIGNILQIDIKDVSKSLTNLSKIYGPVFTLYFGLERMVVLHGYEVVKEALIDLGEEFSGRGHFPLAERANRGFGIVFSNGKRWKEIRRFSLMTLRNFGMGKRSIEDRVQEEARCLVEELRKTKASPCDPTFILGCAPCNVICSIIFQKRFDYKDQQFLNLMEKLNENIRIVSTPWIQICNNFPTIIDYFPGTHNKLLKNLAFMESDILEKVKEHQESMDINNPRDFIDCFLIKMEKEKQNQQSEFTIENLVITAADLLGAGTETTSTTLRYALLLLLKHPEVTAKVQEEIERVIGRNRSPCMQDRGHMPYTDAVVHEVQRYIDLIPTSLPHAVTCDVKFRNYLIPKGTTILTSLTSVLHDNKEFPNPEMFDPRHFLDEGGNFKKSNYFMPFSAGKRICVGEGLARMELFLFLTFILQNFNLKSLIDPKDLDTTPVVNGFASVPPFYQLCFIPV
# Chain of Cytochrome P450 2D6 (P10635 whole entry): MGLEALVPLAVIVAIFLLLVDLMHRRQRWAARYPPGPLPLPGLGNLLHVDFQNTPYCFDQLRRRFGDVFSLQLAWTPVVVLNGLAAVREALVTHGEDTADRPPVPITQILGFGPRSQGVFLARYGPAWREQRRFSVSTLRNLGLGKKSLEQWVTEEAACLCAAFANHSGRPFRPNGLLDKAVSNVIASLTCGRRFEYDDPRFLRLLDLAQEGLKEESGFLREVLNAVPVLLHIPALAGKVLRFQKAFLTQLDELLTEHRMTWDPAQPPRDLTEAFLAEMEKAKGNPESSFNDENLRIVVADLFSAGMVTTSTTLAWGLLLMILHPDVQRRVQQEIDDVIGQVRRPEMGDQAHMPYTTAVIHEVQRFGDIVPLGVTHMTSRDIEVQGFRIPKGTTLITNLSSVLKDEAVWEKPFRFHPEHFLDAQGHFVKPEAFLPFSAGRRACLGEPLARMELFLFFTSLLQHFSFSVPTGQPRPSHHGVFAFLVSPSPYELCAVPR
compound,measurement,setting,value
COc1cccc(NC(=O)COC(=O)c2nc3nccc(C)n3n2)c1,AC50,[1],31.6 µM (inconclusive)
same,AC50,[2],22.4 µM (inconclusive)
same,AC50,[3],17.8 µM (inconclusive)
COc1ccc(CN2C(=O)CN(C3CCCCCC3)C(=O)C2c2ccc(OC)c(OC)c2)cc1 (configuration not stated),AC50,[3],35.5 µM (inconclusive)
Cc1ccc(-c2cn3c(n2)SCC3)cc1,AC50,[4],0.513 µM (active)
COc1ccc(C2Nc3ccccc3C(=O)N2Cc2ccco2)cc1COc1ccc([N+](=O)[O-])cc1 (configuration not stated),AC50,[2],3.98 µM (inconclusive)
Cc1cc(-c2ccc(Cl)cc2)oc(=O)c1NC(=O)c1ccccc1,AC50,[1],3.55 µM (inconclusive)
O=C1c2ccccc2C(=O)N1CCCCN(C(=O)c1cc([N+](=O)[O-])cc([N+](=O)[O-])c1)c1ccc(Cl)cc1,CC50,[5],> 50 µM (active)
CCCOC(=O)C(=O)NNc1ccccc1,AC50,[6],0.95 µM (active)
CS(=O)(=O)Nc1cccc(-c2nc(NCCN3CCOCC3)c3ccccc3n2)c1,AC50,[3],25.1 µM (inconclusive)
CN=C(S)N1CCN(c2ccc(Cl)c(Cl)c2)CC1,CC50,[5],21.3 µM (active)
CC(CO)(CO)/N=C\c1cc(I)cc(I)c1O,AC50,[3],1.58 µM (inconclusive)
same,AC50,[7],6.31 µM (inconclusive)
N#C/C(=C\c1ccc(N2CCCC2)c([N+](=O)[O-])c1)c1nc2ccccc2[nH]1,AC50,[3],11.2 µM (inconclusive)
CC(NC(=O)c1ccc(N2CCNCC2)c([N+](=O)[O-])c1)C12CC3CC(CC(C3)C1)C2 (configuration not stated),CC50,[5],16 µM (active)
same,AC50,[6],10.2 µM (active)
Oc1ccccc1-c1nnc(S)n1Cc1ccco1,AC50,[4],4.75 µM (active)
CN1CCN(c2ncnc3ccc(-c4ccccc4Cl)cc23)CC1,AC50,[2],25.1 µM (inconclusive)
Cc1nc2cc(C(F)(F)F)ccc2n1CCNc1nc(-c2cc(Cl)c(N)c(Cl)c2)cs1,CC50,[5],19.7 µM (active)
CCCNC(=O)N1N=C(c2ccc(N)cc2)c2cc3c(cc2[C@H]1C)OCO3,AC50,[2],25.1 µM (inconclusive)
C=CCc1ccc(OCCOCCOc2cccc3ccc(C)nc23)c(OC)c1,CC50,[5],29.6 µM (active)
CC(C)C(NS(=O)(=O)c1cccc2nsnc12)C(=O)N1CCc2ccccc2C1 (configuration not stated),AC50,[1],6.31 µM (inconclusive)
same,AC50,[7],3.55 µM (inconclusive)
COCCCN1C(=O)C(O)=C(C(=O)c2ccc(OC(C)C)c(C)c2)C1c1ccncc1 (configuration not stated),AC50,[1],11.2 µM (inconclusive)
same,AC50,[7],35.5 µM (inconclusive)
CN(CC(=O)Nc1ccc(Cl)cc1)CC(=O)Nc1cccc(Br)c1,CC50,[5],16.2 µM (active)
COc1ccc(N2CCN(C(=O)CCNC(=O)c3ccc(C(C)(C)C)cc3)CC2)cc1,AC50,[4],10.1 µM (active)
CC(C)OC(=O)c1cc2c(OC[C@@H](O)CNC(C)(C)C)cccc2[nH]1,AC50,[2],15.8 µM (inconclusive)
same,AC50,[3],31.6 µM (inconclusive)
N=C(N)c1ccc(/N=N\c2c(O)ccc3c2[nH]c2ccccc23)cc1,AC50,[2],5.01 µM (inconclusive)
COc1cccc(Cn2c(=O)c(-c3cc(F)cc(F)c3)nc3cnc(N4CCNCC4)nc32)c1,AC50,[1],39.8 µM (inconclusive)
same,AC50,[2],39.8 µM (inconclusive)
